# Assay results: ChEMBL document CHEMBL3751767, “Synthesis, in vitro and in vivo anticancer activities of novel 4-substituted 1,2-bis(4-chlorophenyl)-pyrazolidine-3,5-dione derivatives” (Medchemcomm, 2015)
# Activity calls are given as the source filed them. No cut-off for these calls is given here.
# Columns and labels:
# MGC-803 [1] = assay: Induction of apoptosis in human MGC803 cells assessed as increase in expression of cleaved caspase-3 after 24 hrs by Western blot analysis; assay type: functional, cell-based
# MGC-803 [2] = assay: Induction of apoptosis in human MGC803 cells assessed as necrotic cells at 4 uM after 24 hrs by Annexin V-FITC/propidium iodide staining based flow cytometry (reference value: 6.1%); assay type: functional
# MGC-803 [3] = assay: Induction of apoptosis in human MGC803 cells assessed as increase in expression of cleaved caspase-9 at 4 to 12 uM after 24 hrs by Western blot analysis; assay type: functional, cell-based
# MGC-803 [4] = assay: Induction of apoptosis in human MGC803 cells assessed as early apoptotic cells at 4 uM after 24 hrs by Annexin V-FITC/propidium iodide staining based flow cytometry (reference value: 6%); assay type: functional
# [5] = Cytotoxicity against human GES-1 cells assessed as cell viability at 20 uM after 72 hrs by MTT assay relative to control; assay type: cell-based, GES1; conditions: read-out: Activity
# MGC-803 [6] = assay: Induction of apoptosis in human MGC803 cells assessed as increase in expression of cleaved caspase-3 at 4 to 12 uM after 24 hrs by Western blot analysis; assay type: functional, cell-based
# MGC-803 [7] = assay: Induction of apoptosis in human MGC803 cells assessed as decrease in expression of procaspase-9 at 4 to 12 uM after 24 hrs by Western blot analysis; assay type: functional, cell-based
# MGC-803 [8] = assay: Induction of apoptosis in human MGC803 cells assessed as necrotic cells at 8 uM after 12 hrs by Annexin V-FITC/propidium iodide staining based flow cytometry (reference value: 9.2%); assay type: functional
# MGC-803 [9] = assay: Induction of apoptosis in human MGC803 cells assessed as late apoptotic cells at 4 uM after 24 hrs by Annexin V-FITC/propidium iodide staining based flow cytometry (reference value: 1.2%); assay type: functional
# MGC-803 [10] = assay: Induction of apoptosis in human MGC803 cells assessed as late apoptotic cells at 8 uM after 24 hrs by Annexin V-FITC/propidium iodide staining based flow cytometry (reference value: 1.2%); assay type: functional
# MGC-803 [11] = assay: Induction of apoptosis in human MGC803 cells assessed as decrease in expression of procaspase-3 at 4 to 12 uM after 24 hrs by Western blot analysis; assay type: functional, cell-based
# MGC-803 [12] = assay: Induction of apoptosis in human MGC803 cells assessed as reduction in Bcl-2 protein expression after 24 hrs by Western blot analysis; assay type: functional, cell-based
# MGC-803 [13] = assay: Induction of apoptosis in human MGC803 cells assessed as early apoptotic cells at 8 uM after 24 hrs by Annexin V-FITC/propidium iodide staining based flow cytometry (reference value: 6%); assay type: functional
# MGC-803 [14] = assay: Induction of apoptosis in human MGC803 cells assessed as increase in expression of cleaved caspase-3 at 4 to 12 uM by Western blot analysis; assay type: functional, cell-based; conditions: TDE = time-dependent effect
# MCF7 = assay: Cytotoxicity against human MCF7 cells assessed as reduction in cell viability after 72 hrs by MTT assay; assay type: functional, cell-based; conditions: MCF7, 72 h
# MGC-803 [15] = assay: Induction of apoptosis in human MGC803 cells assessed as increase in Bax protein expression after 24 hrs by Western blot analysis; assay type: functional, cell-based
# [16] = Cytotoxicity against human SMMC7721 cells assessed as reduction in cell viability after 72 hrs by MTT assay; assay type: functional, cell-based; conditions: SMMC-7721, 72 h
# MGC-803 [17] = assay: Induction of apoptosis in human MGC803 cells assessed as early apoptotic cells at 12 uM after 12 hrs by Annexin V-FITC/propidium iodide staining based flow cytometry (reference value: 6.3%); assay type: functional
# MGC-803 [18] = assay: Induction of apoptosis in human MGC803 cells assessed as late apoptotic cells at 12 uM after 12 hrs by Annexin V-FITC/propidium iodide staining based flow cytometry (reference value: 1.2%); assay type: functional
# MGC-803 [19] = assay: Induction of apoptosis in human MGC803 cells assessed as early apoptotic cells at 12 uM after 24 hrs by Annexin V-FITC/propidium iodide staining based flow cytometry (reference value: 6%); assay type: functional
# MGC-803 [20] = assay: Induction of apoptosis in human MGC803 cells assessed as viable cells at 12 uM after 24 hrs by Annexin V-FITC/propidium iodide staining based flow cytometry (reference value: 86.6%); assay type: functional; conditions: MGC-803, 24 h, read-out: Activity
# MGC-803 [21] = assay: Induction of apoptosis in human MGC803 cells assessed as viable cells at 8 uM after 12 hrs by Annexin V-FITC/propidium iodide staining based flow cytometry (reference value: 83.4%); assay type: functional; conditions: MGC-803, 12 h, read-out: Activity
# MGC-803 [22] = assay: Induction of apoptosis in human MGC803 cells assessed as necrotic cells at 8 uM after 24 hrs by Annexin V-FITC/propidium iodide staining based flow cytometry (reference value: 6.1%); assay type: functional
# MGC-803 [23] = assay: Induction of apoptosis in human MGC803 cells assessed as increase in expression of cleaved caspase-9 at 4 to 12 uM by Western blot analysis; assay type: functional, cell-based; conditions: TDE = time-dependent effect
# [24] = Cytotoxicity against human MGC803 cells assessed as reduction in cell viability after 72 hrs by MTT assay; assay type: functional, cell-based; conditions: MGC-803, 72 h
# MGC-803 [25] = assay: Induction of apoptosis in human MGC803 cells assessed as viable cells at 12 uM after 12 hrs by Annexin V-FITC/propidium iodide staining based flow cytometry (reference value: 83.4%); assay type: functional; conditions: MGC-803, 12 h, read-out: Activity
# MGC-803 [26] = assay: Induction of apoptosis in human MGC803 cells assessed as early apoptotic cells at 4 uM after 12 hrs by Annexin V-FITC/propidium iodide staining based flow cytometry (reference value: 6.3%); assay type: functional
# MGC-803 [27] = assay: Induction of apoptosis in human MGC803 cells assessed as increase in expression of cleaved caspase-9 after 24 hrs by Western blot analysis; assay type: functional, cell-based
# MGC-803 [28] = assay: Induction of apoptosis in human MGC803 cells assessed as viable cells at 4 uM after 24 hrs by Annexin V-FITC/propidium iodide staining based flow cytometry (reference value: 86.6%); assay type: functional; conditions: MGC-803, 24 h, read-out: Activity
# MGC-803 [29] = assay: Induction of apoptosis in human MGC803 cells by Annexin V-FITC/propidium iodide staining based flow cytometry; assay type: functional, cell-based
# MGC-803 [30] = assay: Induction of apoptosis in human MGC803 cells assessed as morphological changes at 4 to 12 uM after 12 hrs by inverted microscopy; assay type: functional, cell-based
# MGC-803 [31] = assay: Induction of apoptosis in human MGC803 cells assessed as nuclear morphological changes at 4 to 12 uM after 12 hrs by Hoechst 33258 staining based fluorescence assay; assay type: functional, cell-based
# [32] = Antitumor activity against human MGC803 cells xenografted in nude mouse assessed as reduction in tumor weight 7.5 to 30 mg/kg, po qd for 28 days relative to control; assay type: functional, MGC-803; design: scale not given: the % may be the effect or the level left
# MGC-803 [33] = assay: Induction of apoptosis in human MGC803 cells assessed as viable cells at 4 uM after 12 hrs by Annexin V-FITC/propidium iodide staining based flow cytometry (reference value: 83.4%); assay type: functional; conditions: MGC-803, 12 h, read-out: Activity
# MGC-803 [34] = assay: Induction of apoptosis in human MGC803 cells assessed as necrotic cells at 12 uM after 12 hrs by Annexin V-FITC/propidium iodide staining based flow cytometry (reference value: 9.2%); assay type: functional
# [35] = Cytotoxicity against human EC109 cells assessed as reduction in cell viability after 72 hrs by MTT assay; assay type: functional, cell-based; conditions: ECa-109, 72 h
# MGC-803 [36] = assay: Induction of apoptosis in human MGC803 cells assessed as late apoptotic cells at 8 uM after 12 hrs by Annexin V-FITC/propidium iodide staining based flow cytometry (reference value: 1.2%); assay type: functional
# MGC-803 [37] = assay: Induction of apoptosis in human MGC803 cells assessed as viable cells at 8 uM after 24 hrs by Annexin V-FITC/propidium iodide staining based flow cytometry (reference value: 86.6%); assay type: functional; conditions: MGC-803, 24 h, read-out: Activity
# MGC-803 [38] = assay: Induction of apoptosis in human MGC803 cells assessed as early apoptotic cells at 8 uM after 12 hrs by Annexin V-FITC/propidium iodide staining based flow cytometry (reference value: 6.3%); assay type: functional
# MGC-803 [39] = assay: Induction of apoptosis in human MGC803 cells assessed as necrotic cells at 12 uM after 24 hrs by Annexin V-FITC/propidium iodide staining based flow cytometry (reference value: 6.1%); assay type: functional
# MGC-803 [40] = assay: Induction of apoptosis in human MGC803 cells assessed as late apoptotic cells at 4 uM after 12 hrs by Annexin V-FITC/propidium iodide staining based flow cytometry (reference value: 1.2%); assay type: functional
# MGC-803 [41] = assay: Induction of apoptosis in human MGC803 cells assessed as late apoptotic cells at 12 uM after 24 hrs by Annexin V-FITC/propidium iodide staining based flow cytometry (reference value: 1.2%); assay type: functional
# Mus musculus = assay: Toxicity in nude mouse xenografted with human MGC803 cells assessed as body weight loss at 7.5 to 30 mg/kg, po qd for 28 days; assay type: organism-based, MGC-803; conditions: in vivo, 672 h
# MGC-803 [42] = assay: Induction of apoptosis in human MGC803 cells assessed as necrotic cells at 4 uM after 12 hrs by Annexin V-FITC/propidium iodide staining based flow cytometry (reference value: 9.2%); assay type: functional
smiles,measurement,setting,value
O=C1C(=C/C=C/c2ccccc2)C(=O)N(c2ccc(Cl)cc2)N1c1ccc(Cl)cc1,Activity,MGC-803 [1],Dose-dependent effect
same,Activity,MGC-803 [2],5.8%
same,Activity,MGC-803 [3],Active
same,Activity,MGC-803 [4],20.4%
same,"viability at 72 h, 20 µM",[5],75%
same,Activity,MGC-803 [6],Active
same,Activity,MGC-803 [7],Active
same,Activity,MGC-803 [8],5.7%
same,Activity,MGC-803 [9],1.8%
same,Activity,MGC-803 [10],2%
same,Activity,MGC-803 [11],Active
same,Activity,MGC-803 [12],Dose-dependent effect
same,Activity,MGC-803 [13],28.8%
same,Activity,MGC-803 [14],tde
same,IC50,MCF7,9.4 µM
same,Activity,MGC-803 [15],Dose-dependent effect
same,IC50,[16],10.1 µM
same,Activity,MGC-803 [17],30.1%
same,Activity,MGC-803 [18],1.9%
same,Activity,MGC-803 [19],52.7%
same,viability at 12 µM,MGC-803 [20],39.2%
same,viability at 8 µM,MGC-803 [21],71.1%
same,Activity,MGC-803 [22],4.2%
same,Activity,MGC-803 [23],tde
same,IC50,[24],5.1 µM
same,viability at 12 µM,MGC-803 [25],64.1%
same,Activity,MGC-803 [26],12.8%
same,Activity,MGC-803 [27],Dose-dependent effect
same,viability at 4 µM,MGC-803 [28],72.1%
same,Activity,MGC-803 [29],Dose-dependent effect
same,Activity,MGC-803 [30],Active
same,Activity,MGC-803 [31],Active
same,Activity,[32],60.4%
same,viability at 4 µM,MGC-803 [33],77.7%
same,Activity,MGC-803 [34],3.9%
same,IC50,[35],9.9 µM
same,Activity,MGC-803 [36],1.7%
same,viability at 8 µM,MGC-803 [37],65%
same,Activity,MGC-803 [38],21.5%
same,Activity,MGC-803 [39],4.4%
same,Activity,MGC-803 [40],1.8%
same,Activity,MGC-803 [41],3.7%
same,Activity,Mus musculus,Non-toxic
same,Activity,MGC-803 [42],7.8%
